Data on 18 compounds can be found in PubChem BioAssay AID330 (DTP/NCI, 2004).

The experiment concerns P388 leukemia ip, CD2F1 mice, survival T/C. In words: NCI In Vivo Anticancer Drug Screen. Data for tumor model P388 Leukemia (intraperitoneal) in CD2F1 (CDF1) mice. The note with it: endpoint: median survival time, higher = longer survival. The essentials:
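Mice carrying the transplanted tumor received test compound or vehicle. Survival was recorded in each group, and the value is the treated-group measurement divided by that of the vehicle-treated control group.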

The mark [1] stands for this setting: dose: 50.0 mg/kg/injection, schedule: Q01DX005 (ip), vehicle: saline with Tween-80.
The mark [2] stands for this setting: dose: 50.0 mg/kg/injection, schedule: Q01DX009 (ip), vehicle: saline with Tween-80.
[3] abbreviates: dose: 50.0 mg/kg/injection, schedule: Q01DX005 (ip), vehicle: Klucel (hydroxypropylcellulose) (HPC).
Where [4] appears, read: dose: 100.0 mg/kg/injection, schedule: Q01DX005 (ip), vehicle: Klucel (hydroxypropylcellulose) (HPC).
The mark [5] stands for this setting: dose: 200.0 mg/kg/injection, schedule: Q01DX005 (ip), vehicle: Klucel (hydroxypropylcellulose) (HPC).
Setting [6] is: dose: 100.0 mg/kg/injection, schedule: Q01DX005 (ip), vehicle: saline with Tween-80.
Where [7] appears, read: dose: 200.0 mg/kg/injection, schedule: Q01DX005 (ip), vehicle: saline with Tween-80.

Several values for one entry are separate records, joined by “and”; a condition that tells them apart may be missing. Identical values can stand only once. Toxic doses and inconclusive results are not listed. Peptide text beside a SMILES is read from it. * marks the point of attachment. Cbz = O=C(OCc1ccccc1)*

Consider `COc1ccc(-n2c(=O)c(N=Nc3ccccc3OC)c(O)n(-c3ccccc3Cl)c2=S)cc1`, for which the T/C runs as follows: (dose: 50.0 mg/kg/injection, schedule: Q01DX001 (ip), vehicle: Klucel (hydroxypropylcellulose) (HPC)) 100 % of control; (dose: 100.0 mg/kg/injection, schedule: Q01DX001 (ip), vehicle: Klucel (hydroxypropylcellulose) (HPC)) 99 % of control; (dose: 200.0 mg/kg/injection, schedule: Q01DX001 (ip), vehicle: Klucel (hydroxypropylcellulose) (HPC)) 93 % of control.
For the compound `COc1ccc(C2=C(O)c3cc4ccccc4nc3S2(=O)=O)cc1`, the T/C was 103 % of control (dose: 50.0 mg/kg/injection, schedule: Q04DX002 (ip), vehicle: saline); 100 % of control (dose: 100.0 mg/kg/injection, schedule: Q04DX002 (ip), vehicle: saline); 102 % of control (dose: 200.0 mg/kg/injection, schedule: Q04DX002 (ip), vehicle: saline).
Regarding `Nc1nc(C(Br)Br)c([N+](=O)[O-])c(=O)[nH]1`, the T/C by setting is: (dose: 12.0 mg/kg/injection, schedule: Q01DX005 (ip), vehicle: saline with Tween-80) 97 % of control; (dose: 12.5 mg/kg/injection, schedule: Q01DX005 (ip), vehicle: saline with Tween-80) 100 % of control; (dose: 25.0 mg/kg/injection, schedule: Q01DX005 (ip), vehicle: saline with Tween-80) 104 % of control and 94 % of control; under setting [1], 112 % of control and 97 % of control.
Take `O=C(NC(=NC(=Nc1ccccc1)c1ccccc1)c1ccccc1)c1ccccc1`: the T/C reads like this: under setting [2], 99 % of control; (dose: 100.0 mg/kg/injection, schedule: Q01DX009 (ip), vehicle: saline with Tween-80) 102 % of control; (dose: 200.0 mg/kg/injection, schedule: Q01DX009 (ip), vehicle: saline with Tween-80) 99 % of control.
On to `C=CCOCC(O)Cn1cnc2c(N)ncnc21` (configuration not stated), for which the T/C is 97 % of control under setting [3], 106 % of control under setting [4] and 100 % of control under setting [5].
`CCOP(=O)(NNP(=O)(OCC)OCC)OCC`: the T/C was 106 % of control (dose: 50.0 mg/kg/injection, schedule: Q01DX009 (ip), vehicle: saline); 103 % of control (dose: 100.0 mg/kg/injection, schedule: Q01DX009 (ip), vehicle: saline); 104 % of control (dose: 200.0 mg/kg/injection, schedule: Q01DX009 (ip), vehicle: saline).
`OCC1(C(O)(C2CC2)C2(CO)CC2)CC1`: the T/C was 105 % of control under setting [1], 105 % of control under setting [6] and 100 % of control under setting [7].
For `O=C1N(c2ccccc2)N=C2CCCCCCCCCCC12O` (configuration not stated), the T/C runs as follows: under setting [3], 93 % of control; under setting [4], 97 % of control; under setting [5], 94 % of control.
Take `CCn1c2ccc([N+](=O)[O-])cc2c2c([N+](=O)[O-])c(-n3cccc3)ccc21`: the T/C is 95 % of control under setting [1], 90 % of control under setting [6] and 88 % of control under setting [7].
Regarding `O=C1C=C(OCc2ccccc2)C(=O)C(OCc2ccccc2)=C1`, the T/C reads like this: under setting [3], 94 % of control; under setting [4], 100 % of control; under setting [5], 104 % of control.
As to `CCOC(=O)N1CCC23C=C(OC)C(=O)C=C2C1Cc1ccc(OC)c(O)c13` (configuration not stated), the T/C (dose: 100.0 mg/kg/injection, schedule: Q04DX002 (ip), vehicle: saline with Tween-80) is 100 % of control; the T/C (dose: 200.0 mg/kg/injection, schedule: Q04DX002 (ip), vehicle: saline with Tween-80) is 105 % of control; the T/C (dose: 400.0 mg/kg/injection, schedule: Q04DX002 (ip), vehicle: saline with Tween-80) is 93 % of control.
In the case of `CC(O)C(NC(=O)OCc1ccccc1)C(=O)NC(Cc1ccccc1)C(=O)O` (stereo not drawn) (Cbz-Thr-Phe-OH; configuration not given here), the T/C runs as follows: under setting [3], 100 % of control; under setting [4], 101 % of control; under setting [5], 101 % of control.
With `C1CCCCCc2c(-c3noc4c3CCCCCCCCCC4)noc2CCCC1`, the T/C was 105 % of control (dose: 60.0 mg/kg/injection, schedule: Q01DX005 (ip), vehicle: Klucel + Tween-80); 97 % of control (dose: 120.0 mg/kg/injection, schedule: Q01DX005 (ip), vehicle: Klucel + Tween-80); 100 % of control (dose: 240.0 mg/kg/injection, schedule: Q01DX005 (ip), vehicle: Klucel + Tween-80).
Consider `O=C(O)c1ccccc1NC(=S)Nc1ccccc1C(F)(F)F`, for which the T/C is 100 % of control (dose: 50.0 mg/kg/injection, schedule: Q01DX009 (ip), vehicle: Klucel (hydroxypropylcellulose) (HPC)); 96 % of control (dose: 100.0 mg/kg/injection, schedule: Q01DX009 (ip), vehicle: Klucel (hydroxypropylcellulose) (HPC)); 105 % of control (dose: 200.0 mg/kg/injection, schedule: Q01DX009 (ip), vehicle: Klucel (hydroxypropylcellulose) (HPC)).
Regarding `O=[N+]([O-])c1ccccc1O`, the T/C is 109 % of control (dose: 12.5 mg/kg/injection, schedule: Q01DX009 (ip), vehicle: saline with Tween-80); 113 % of control (dose: 25.0 mg/kg/injection, schedule: Q01DX009 (ip), vehicle: saline with Tween-80); 109 % of control under setting [2]; 105 % of control (dose: 100.0 mg/kg/injection, schedule: Q04DX003 (ip), vehicle: saline with Tween-80); 110 % of control (dose: 200.0 mg/kg/injection, schedule: Q04DX003 (ip), vehicle: saline with Tween-80); 105 % of control (dose: 400.0 mg/kg/injection, schedule: Q04DX003 (ip), vehicle: saline with Tween-80).
Consider `CN(CCO)C1=CC(=O)C(N2c3ccccc3Nc3cc(O)c(N(C)CCO)cc32)=CC1=O`, for which the T/C is 101 % of control (dose: 50.0 mg/kg/injection, schedule: Q01DX009 (ip), vehicle: suspension in saline); 99 % of control (dose: 100.0 mg/kg/injection, schedule: Q01DX009 (ip), vehicle: suspension in saline); 105 % of control (dose: 200.0 mg/kg/injection, schedule: Q01DX009 (ip), vehicle: suspension in saline).
On to `N#C/C(=N\N=C(/C#N)c1ccc(Cl)cc1)c1ccc(Cl)cc1`, for which the T/C by setting is: under setting [1], 97 % of control; under setting [6], 94 % of control; under setting [7], 88 % of control.
On to `S=P(N1CC1)(N1CC1)N1CC1`, for which the T/C runs as follows: (dose: 0.62 mg/kg/injection, schedule: Q01DX005 (ip), vehicle: saline) 100 % of control; (dose: 0.75 mg/kg/injection, schedule: Q01DX005 (ip), vehicle: saline) 118 % of control; (dose: 0.75 mg/kg/injection, schedule: Q01DX009 (ip), vehicle: saline) 106 % of control; (dose: 1.25 mg/kg/injection, schedule: Q01DX005 (ip), vehicle: saline) 115 % of control; (dose: 1.25 mg/kg/injection, schedule: Q04DX003 (ip), vehicle: water) 101 % of control and 110 % of control (2×); (dose: 1.5 mg/kg/injection, schedule: Q01DX005 (ip), vehicle: saline) 114 % of control and 120 % of control. In addition, the T/C is 124 % of control (dose: 2.0 mg/kg/injection, schedule: Q01DX009 (ip), vehicle: saline); 110 % of control (dose: 2.5 mg/kg/injection, schedule: Q04DX003 (ip), vehicle: water); 163 % of control (dose: 3.0 mg/kg/injection, schedule: Q01DX005 (ip), vehicle: saline); 163 % of control and 174 % of control (dose: 3.0 mg/kg/injection, schedule: Q01DX009 (ip), vehicle: saline); 124 % of control (dose: 3.24 mg/kg/injection, schedule: Q04DX002 (ip), vehicle: saline); 178 % of control (dose: 4.0 mg/kg/injection, schedule: Q01DX009 (ip), vehicle: saline). Besides, the T/C is, setting by setting: (dose: 5.0 mg/kg/injection, schedule: Q01DX005 (ip), vehicle: saline) 169 % of control; (dose: 5.0 mg/kg/injection, schedule: Q04DX003 (ip), vehicle: water) 163 % of control; (dose: 6.0 mg/kg/injection, schedule: Q01DX005 (ip), vehicle: saline) 181 % of control and 207 % of control and 90 % of control; (dose: 8.0 mg/kg/injection, schedule: Q01DX009 (ip), vehicle: saline) 101 % of control; (dose: 9.0 mg/kg/injection, schedule: Q04DX002 (ip), vehicle: saline) 166 % of control; (dose: 10.0 mg/kg/injection, schedule: Q04DX003 (ip), vehicle: water) 159 % of control and 200 % of control and 229 % of control. Besides, the T/C (dose: 12.0 mg/kg/injection, schedule: Q01DX005 (ip), vehicle: saline) is 88 % of control; the T/C (dose: 15.0 mg/kg/injection, schedule: Q04DX002 (ip), vehicle: saline) is 197 % of control; the T/C (dose: 20.0 mg/kg/injection, schedule: Q04DX003 (ip), vehicle: water) is 110 % of control and 90 % of control and 92 % of control; the T/C (dose: 25.0 mg/kg/injection, schedule: Q04DX002 (ip), vehicle: saline) is 240 % of control.
